Publication PMC11302729, “Repurposing Hsp90 inhibitors as antimicrobials targeting two-component systems identifies compounds leading to loss of bacterial membrane integrity” (Microbiology Spectrum, 2024)
Converted amounts (≈) assume the structure as drawn. “And” between values parts separate entries of the source, which are not always exact repeats. Identical values can stand only once.

Key:
[1] = tested on: CckA from Caulobacter crescentus; parameters: method as in PMID 29110989; details: cited from earlier work
[2] = tested on: PhoQ from Salmonella typhimurium; parameters: method as in PMID 29110989; details: cited from earlier work
[3] = tested on: Pasteurella haemolytica ATCC 29701; assay: MIC (microdilution) against P. haemolytica; format: cell-based; details: Mannheimia haemolytica, ATCC29701, read-out: MIC P. haemolytica, Table ST1
Procedure: (§1) Staphylococcus aureus str. Newman, Enterococcus faecalis vanA (strain E0155), Enterococcus faecium vanA (strain E1654), Escherichia coli ATCC 25922, Escherichia coli D21f2 with a truncated LPS barrier, Escherichia coli JW5503 (ΔtolC) ([49]), Pseudomonas aeruginosa ATCC 27853, and Pasteurella haemolytica ATCC 29701 were grown in Mueller-Hinton Broth (MHB) (Oxoid, Basingstoke, UK) and incubated at 37°C.
(§2) The minimal inhibitory concentration was determined using the microdilution method following the guidelines of the European Committee on Antimicrobial Susceptibility Testing ([50]). Briefly, a series of twofold dilutions in MHB of each compound were made in a 96-well plate, with final concentrations ranging from 50 to 0.39 µg/mL in 100 µL final volume per well. A hundred microliters of 1:100 dilution of an overnight culture of the correspondent bacteria in MHB was added to each well. Plates were incubated for 18 hours at 37°C. MIC was recorded as the lowest concentration where no growth was detected as measured by optical density at 600 nm (OD600) using Spectramax M5 (Molecular Devices LLC, San Jose, CA, USA). […] Wells containing bacteria with or without 1% DMSO and medium alone were included as controls in every plate.

sheep red blood cells = assay: Haemolysis assay; format: cell-based
Procedure: The hemolysis assay was adapted from the study by Evans et al. ([65]). Briefly, sheep RBC 10% washed pooled cells in PBS (Rockland Immunochemicals, Limerick, PA, USA) were diluted 1:5 to give a final concentration of 2% RBCs in PBS. […] A non-treated control, 1% DMSO (vehicle control), and complete cell lysis control (Triton-X 2%) were included in each assay. After exposure samples were centrifuged at 4°C at 1,000 g for 15 min and 100 µL of supernatant transferred to a clean well in a 96-well, clear, flat-bottom plate (Corning Incorporated). Released hemoglobin was measured by absorption at 540 nm using a Spectramax M5 plate reader. The experiments were performed in quadruplicate. The percentage of hemolysis was calculated as follows:
Hemolysis=A540nm,testcondition−A540nm,DMSOcontrol/A540nm,TritonXControl−A540nm,DMSOcontrol

[4] = tested on: Escherichia coli ATCC 25922; assay: MIC (microdilution) against E. coli; format: cell-based; details: Escherichia coli, ATCC25922; Table ST1; read-out: MIC E. coli
Procedure: as §1, §2

HEK293 cells [5] = assay: in vitro; format: cell-based; details: for Selectivity Index: LC50/MIC (HEK293 / S. aureus); for LC20: human, 24 h
Procedure: (§3) HEK293 cells and the human hepatocellular carcinoma cells (HepG2) were routinely cultured in 75-cm^2 culture flasks (Corning Incorporated) on high-glucose Dulbecco’s modified Eagle medium (DMEM) containing glutaMax and phenol red (Gibco) supplemented with 1% penicillin/streptomycin (Gibco) and 10% fetal bovine serum (FBS) (Gibco). Cells were maintained at 37°C and 5% CO2.
(§4) Cytotoxicity assays with HEK293 and HepG2 cells were performed in 96-well plates seeded with 5 × 10^4 cells/well and incubated for 24 hours to reach 80%–90% confluency. Exterior wells were filled with only medium to prevent evaporation. Culture medium was removed from the cells, and 100 µL of exposure medium [high-glucose DMEM without phenol red (Gibco)] was added to avoid a potential interaction between FBS components or antibiotics and tested compounds. A twofold dilution series of compounds in exposure medium (range 100–3.2 μg/mL) was made in a separate 96-well plate, and 100 µL of each of these dilutions was added to the assay plates for 24 hours at 37°C in the presence of 5% CO2. Control wells contained cells with DMEM, DMEM + 1% DMSO (vehicle control), or DMEM + 20% DMSO. Wells without cells were also included as negative control. After exposure, the medium was replaced with 100 µL 10% Alamar Blue (Invitrogen) in exposure medium. After 45 min incubation at 37°C and 5% CO2, fluorescence was measured on a Spectramax M5 plate reader at λex = 541 nm, λem = 590 nm. Cell viability compared with the vehicle control was calculated, and inhibition curves for each compound were fitted (non-linear curve fit, four variables, bottom constrained = 0) in Prism 9 (GraphPad Software, San Diego, USA).

in vitro = format: cell-based; details: human
Procedure: as §3, §4

[6] = tested on: Escherichia coli JW5503 (ΔtolC); assay: MIC (microdilution) against E. coli JW5503; format: cell-based; details: Escherichia coli, read-out: MIC E. coli JW5503
From the text: (§5) We also tested the inhibitory activity of compounds in two different E. coli mutants: (i) E. coli JW5503 that lacks TolC efflux pumps and (ii) E. coli D21f2 that has a defective LPS inner core increasing permeability of the outer membrane. E. coli D21f2 has a slightly higher susceptibility to DPP compounds than E. coli ATCC25922.
as §1, §2

[7] = tested on: Enterococcus faecium vanA (strain E1654); assay: MIC (microdilution) against E. faecium; format: cell-based; details: Enterococcus faecium, read-out: MIC E. faecium
Procedure: as §1, §2

S. aureus str. Newman = assay: Membrane permeability using SYTOX-Green, flow cytometry; format: cell-based; details: for % FITC stained bacteria 0.5 xMIC: 0.5× MIC; for % FITC stained bacteria 0.5 xMIC / % FITC stained bacteria 1 xMIC / % FITC stained bacteria 2 xMIC: 5 min exposure; for % FITC stained bacteria 1 xMIC: 1× MIC; for % FITC stained bacteria 2 xMIC: 2× MIC; for Membrane damage: if considered to cause membrane damage to S. aureus
Procedure: S. aureus str. Newman was grown to exponential phase (OD600 = 0.4) in MHB media. […] Nisin (Sigma-Aldrich) and novobiocin (Sigma-Aldrich) were used as positive and negative controls for membrane permeabilization, and stained and unstained untreated controls were also included in each assay. After exposure, samples were centrifuged at 4,000 r.p.m. for 5 min and resuspended in PBS. Bacteria were dyed by adding the fluorescent nuclear stain SYTOX Green (Molecular Probes, Invitrogen) to a final concentration of 0.5 µM and incubating for 5 min in the dark. Samples were centrifuged again and resuspended with PBS to remove unbound stain. Three hundred microliters of each sample was transferred to a clean well in a 96-well clear-bottom plate (Corning Incorporated). Fluorescence was measured in CytoFLEX flow cytometer (Beckman Coulter, Brea, CA, USA) using the green (FITC) channel with the excitation wavelength at 488 nm. Overlay histograms were created with CytExpert Software (Beckman Coulter, Brea, CA, USA).

HEK293 cells [8] = assay: Cell imaging of HEK293 cells; format: cell-based; details: for cells in G2/M phase: HEK293, LC20, 24 hours exposure, DMSO control 2.68% ± 1.31%; for Morphological changes of HEK293 cells: LC20, 24 hours exposure, 40× amplification
Procedure: HEK293 cells were plated in 24-well plates on exposure medium for 24 hours (500,000 cells/well). Cells were exposed to a subset of compounds at a lethal concentration of 20% (LC20). After 24 hours exposure, cells were fixed with 2% glutaraldehyde for 15 min, washed with water, permeabilized with 0.5% Triton-X, washed twice with water, and stained with Toluidine blue 0.3%. For 100× amplification, cells were harvested by pipetting up and down in 250 µL of exposure medium. Cells from three wells treated with the same compound were pooled and centrifuged for 5 min at 1,500 r.p.m. The cell pellet was fixed in 0.1 M cacodylate buffer containing 2% glutaraldehyde (vol/vol) (pH 7.4). After 1 hour on ice, the pellet was washed with 0.1 M cacodylate buffer and fixed in 0.1 M cacodylate buffer containing 1% osmium tetroxide (wt/vol). After a further hour on ice, the cell pellet was embedded in hard Epon and 1-µm slides were cut and stained with 1% toluidine blue and 1% borax (wt/vol). Cell abnormalities were assessed by microscopy using a Leica DM6B light microscope (Leica Microsystems B.V., Amsterdam, the Netherlands) at 100× magnification.

[9] = tested on: Staphylococcus aureus str. Newman; assay: Minimal inhibitory concentration (microdilution) against S. aureus; format: cell-based; details: for MIC S. aureus: Table ST3
Procedure: as §1, §2

[10] = tested on: Pseudomonas aeruginosa ATCC 27853; assay: MIC (microdilution) against P. aeruginosa; format: cell-based; details: Pseudomonas aeruginosa, ATCC27853; Table ST1; read-out: MIC P. aeruginosa
Procedure: as §1, §2

[11] = tested on: Enterococcus faecalis vanA (strain E0155); assay: MIC (microdilution) against E. faecalis; format: cell-based; details: Enterococcus faecalis, read-out: MIC E. faecalis
Procedure: as §1, §2

[12] = tested on: Escherichia coli D21f2 with a truncated LPS barrier; assay: MIC (microdilution) against E. coli D21f2; format: cell-based; details: read-out: MIC E coli D21f2
From the text: as §5, §1, §2

[13] = Staphylococcus aureus, NEWMAN, Fig 2
[14] = Staphylococcus aureus, NEWMAN, Fig 2, value in parentheses
[15] = Table ST3, value in parentheses

Row | SMILES | IC50 [1] [µM] | IC50 [2] [µM] | MIC [3] [µg/mL] | RBC hemolysis (sheep red blood cells) | MIC [4] [µg/mL] | Selectivity Index (HEK293 cells [5]) | LC20 (HEK293 cells [5]) [µg/mL] | CC50 at 24 h (in vitro) | MIC [6] [µg/mL] | MIC [7] [µg/mL] | % FITC stained bacteria 0.5 xMIC (S. aureus str. Newman) [%] | % FITC stained bacteria 1 xMIC (S. aureus str. Newman) [%] | % FITC stained bacteria 2 xMIC (S. aureus str. Newman) [%] | Membrane damage (S. aureus str. Newman) | MIC [9, 13] [µg/mL] | MIC [9, 14] [µM] | MIC S. aureus [9] [µg/mL] | MIC [9, 15] [µM] | MIC [10] [µg/mL] | MIC [11] [µg/mL] | also measured
1 | CCc1cc(-c2n[nH]c(C)c2-c2ccc3c(c2)OCCO3)c(O)cc1O [CCT018159] | 30 | 261 | – | – | – | – | – | – | – | – | – | – | – | – | – | – | – | – | – | – | –
2 | CCOc1ccc(-c2[nH]nc(C(F)(F)F)c2-c2ccc(OC)cc2)c(O)c1 [DPP-14] | – | – | > 250 | not hemolytic | > 250 | 1.05 | 3 (≈ 7.93 µM) | 6.57 µg/mL and 17.3 µM | 3.13 (≈ 8.27 µM) | 12.5 (≈ 33 µM) | 28.78 | 44.58 | 56.62 | YES | 6.25 | 16.4 | 6.25 (≈ 16.5 µM) | 16.45 | > 250 | 12.5 (≈ 33 µM) | cells in G2/M phase (HEK293 cells [8]): 12.24% ± 1.23%; Morphological changes of HEK293 cells (HEK293 cells [8]): no morphological changes
3 | COc1ccc(-c2c(-c3cc(Cl)c(O)cc3O)n[nH]c2C)cc1 [Compound 5b] | 14 | 238 | – | – | – | – | – | – | – | – | – | – | – | – | – | – | – | – | – | – | –
4 | CCOc1ccc(-c2[nH]nc(C(F)(F)F)c2-c2ccc(OC)c(OC)c2)c(O)c1 [DPP-20] | – | – | > 250 | not hemolytic | > 250 | 1.32 | 3 (≈ 7.35 µM) | 16.5 µg/mL and 40.3 µM | 6.25 (≈ 15.3 µM) | 25 (≈ 61.2 µM) | 31.90 | 40.99 | 50.97 | YES | 12.5 | 30.5 | 12.5 (≈ 30.6 µM) | 30.49 | > 250 | 25 (≈ 61.2 µM) | cells in G2/M phase (HEK293 cells [8]): 26.25% ± 4.68%; Morphological changes of HEK293 cells (HEK293 cells [8]): no morphological changes
5 | Oc1cc(OCc2ccccc2)ccc1-c1[nH]nc(C(F)(F)F)c1-c1ccc(Cl)cc1 [DPP-8] | – | – | 250 (≈ 562 µM) | – | > 250 | 9.14 | – | 14.2 µg/mL and 32 µM | 12.5 (≈ 28.1 µM) | 3.12 (≈ 7.01 µM) | 12.26 | 32.15 | 36.10 | YES | 1.56 | 3.51 | 1.56 (≈ 3.51 µM) | 3.51 | > 250 | 1.56 (≈ 3.51 µM) | Haemolysis (sheep red blood cells; if considered to cause haemolysis to red blood cells): YES; MIC [12]: 25 µg/mL (≈ 56.2 µM)
